Source: the supplement of paper PMC11451515

Key:
Details in all cases: 48 h
[1] = test system: P12-Ichikawa; assay: AUC of viability dose-response curve (% viability x log10 dose units); higher = less sensitive
Outline: (§1)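 Seeding of medium-adapted leukemia cells was at 500 or 1000 cells/well in 1536-well plates, followed by 48 h at 37°C with library compounds in DMSO at 11 threefold doses from 47 μM to 0.79 nM. CellTiter-Glo One luminescence was normalised per plate to DMSO and cell-free wells and fitted as a four-parameter log-logistic function of log10 dose. Area under the curve was integrated by trapezoidal rule, with curves exceeding full viability scaled and curves failing quality control removed.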

[2] = test system: SEM cells; assay: as above
Outline: as §1

[3] = test system: NOMO1; assay: as above
Outline: as §1

[4] = test system: P12-Ichikawa; assay: cell viability relative to DMSO control; higher = less cytotoxic
Outline: (§2)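 Library compounds in DMSO were pin-dosed in an 11-point threefold series (47 μM to 0.79 nM) onto leukemia cells in 1536-well plates (5 μl). Plates held 500 cells/well of NOMO1 or SEM or 1000 cells/well of P12-Ichikawa, each adapted for at least four passages in each medium. Luminescence was read with CellTiter-Glo One after 48 h at 37°C. Viability means the per-plate percentage relative to DMSO wells, using cell-free wells as background.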

[5] = test system: SEM cells; assay: as above
Outline: as §2

[6] = test system: NOMO1; assay: as above
Outline: as §2

[7] = RPMI 5 mM glucose + 10% dialyzed FBS
[8] = HPLM + 10% dialyzed FBS, 0.000781 µM
[9] = HPLM + 10% dialyzed FBS, 0.00234 µM
[10] = HPLM + 10% dialyzed FBS, 0.00702 µM
[11] = HPLM + 10% dialyzed FBS, 0.0211 µM
[12] = HPLM + 10% dialyzed FBS, 0.0632 µM
[13] = HPLM + 10% dialyzed FBS, 0.19 µM
[14] = HPLM + 10% dialyzed FBS, 0.569 µM
[15] = HPLM + 10% dialyzed FBS, 1.71 µM
[16] = HPLM + 10% dialyzed FBS, 5.12 µM
[17] = HPLM + 10% dialyzed FBS, 15.4 µM
[18] = HPLM + 10% dialyzed FBS, 46.1 µM
[19] = RPMI 5 mM glucose + 10% FBS, 0.000781 µM
[20] = RPMI 5 mM glucose + 10% FBS, 0.00234 µM
[21] = RPMI 5 mM glucose + 10% FBS, 0.00702 µM
[22] = RPMI 5 mM glucose + 10% FBS, 0.0211 µM
[23] = RPMI 5 mM glucose + 10% FBS, 0.0632 µM
[24] = RPMI 5 mM glucose + 10% FBS, 0.19 µM
[25] = RPMI 5 mM glucose + 10% FBS, 0.569 µM
[26] = RPMI 5 mM glucose + 10% FBS, 1.71 µM
[27] = RPMI 5 mM glucose + 10% FBS, 5.12 µM
[28] = RPMI 5 mM glucose + 10% FBS, 15.4 µM
[29] = RPMI 5 mM glucose + 10% FBS, 46.1 µM
[30] = RPMI 5 mM glucose + 10% dialyzed FBS, 0.000781 µM
[31] = RPMI 5 mM glucose + 10% dialyzed FBS, 0.00234 µM
[32] = RPMI 5 mM glucose + 10% dialyzed FBS, 0.00702 µM
[33] = RPMI 5 mM glucose + 10% dialyzed FBS, 0.0211 µM
[34] = RPMI 5 mM glucose + 10% dialyzed FBS, 0.0632 µM
[35] = RPMI 5 mM glucose + 10% dialyzed FBS, 0.19 µM
[36] = RPMI 5 mM glucose + 10% dialyzed FBS, 0.569 µM
[37] = RPMI 5 mM glucose + 10% dialyzed FBS, 1.71 µM
[38] = RPMI 5 mM glucose + 10% dialyzed FBS, 5.12 µM
[39] = RPMI 5 mM glucose + 10% dialyzed FBS, 15.4 µM
[40] = RPMI 5 mM glucose + 10% dialyzed FBS, 46.1 µM

CNC(=O)c1cc(COc2nnc(Nc3ccc(Cl)cc3)c3ccoc23)ccn1
AUC of viability dose-response curve ([1]; HPLM + 10% dialyzed FBS): 440
AUC of viability dose-response curve ([1]; RPMI 5 mM glucose + 10% FBS): 458
AUC of viability dose-response curve [1, 7]: 440
AUC of viability dose-response curve ([2]; HPLM + 10% dialyzed FBS): 452
AUC of viability dose-response curve ([2]; RPMI 5 mM glucose + 10% FBS): 446
AUC of viability dose-response curve [2, 7]: 436
AUC of viability dose-response curve ([3]; HPLM + 10% dialyzed FBS): 449
AUC of viability dose-response curve ([3]; RPMI 5 mM glucose + 10% FBS): 446
AUC of viability dose-response curve [3, 7]: 452
cell viability [4, 8]: 119%
cell viability [4, 9]: 109%
cell viability [4, 10]: 110%
cell viability [4, 11]: 105%
cell viability [4, 12]: 106%
cell viability [4, 13]: 113%
cell viability [4, 14]: 105%
cell viability [4, 15]: 103%
cell viability [4, 16]: 106%
cell viability [4, 17]: 101%
cell viability [4, 18]: 89.4%
cell viability [4, 19]: 117%
cell viability [4, 20]: 116%
cell viability [4, 21]: 118%
cell viability [4, 22]: 115%
cell viability [4, 23]: 116%
cell viability [4, 24]: 113%
cell viability [4, 25]: 112%
cell viability [4, 26]: 110%
cell viability [4, 27]: 105%
cell viability [4, 28]: 107%
cell viability [4, 29]: 102%
cell viability [4, 30]: 114%
cell viability [4, 31]: 130%
cell viability [4, 32]: 108%
cell viability [4, 33]: 114%
cell viability [4, 34]: 104%
cell viability [4, 35]: 115%
cell viability [4, 36]: 116%
cell viability [4, 37]: 100%
cell viability [4, 38]: 111%
cell viability [4, 39]: 101%
cell viability [4, 40]: 97.4%
cell viability [5, 8]: 108%
cell viability [5, 9]: 112%
cell viability [5, 10]: 102%
cell viability [5, 11]: 110%
cell viability [5, 12]: 121%
cell viability [5, 13]: 97.9%
cell viability [5, 14]: 96%
cell viability [5, 15]: 108%
cell viability [5, 16]: 102%
cell viability [5, 17]: 79.9%
cell viability [5, 18]: 61.2%
cell viability [5, 19]: 124%
cell viability [5, 20]: 124%
cell viability [5, 21]: 110%
cell viability [5, 22]: 124%
cell viability [5, 23]: 117%
cell viability [5, 24]: 127%
cell viability [5, 25]: 128%
cell viability [5, 26]: 129%
cell viability [5, 27]: 97.1%
cell viability [5, 28]: 95%
cell viability [5, 29]: 64.7%
cell viability [5, 30]: 96.6%
cell viability [5, 31]: 108%
cell viability [5, 32]: 90.4%
cell viability [5, 33]: 99%
cell viability [5, 34]: 95.4%
cell viability [5, 35]: 104%
cell viability [5, 36]: 102%
cell viability [5, 37]: 86.1%
cell viability [5, 38]: 88.4%
cell viability [5, 39]: 70.4%
cell viability [5, 40]: 47.9%
cell viability [6, 8]: 110%
cell viability [6, 9]: 110%
cell viability [6, 10]: 107%
cell viability [6, 11]: 103%
cell viability [6, 12]: 114%
cell viability [6, 13]: 131%
cell viability [6, 14]: 114%
cell viability [6, 15]: 107%
cell viability [6, 16]: 98.2%
cell viability [6, 17]: 91.1%
cell viability [6, 18]: 65.7%
cell viability [6, 19]: 114%
cell viability [6, 20]: 123%
cell viability [6, 21]: 106%
cell viability [6, 22]: 112%
cell viability [6, 23]: 110%
cell viability [6, 24]: 111%
cell viability [6, 25]: 109%
cell viability [6, 26]: 104%
cell viability [6, 27]: 92.6%
cell viability [6, 28]: 87.4%
cell viability [6, 29]: 87.5%
cell viability [6, 30]: 104%
cell viability [6, 31]: 111%
cell viability [6, 32]: 107%
cell viability [6, 33]: 101%
cell viability [6, 34]: 109%
cell viability [6, 35]: 102%
cell viability [6, 36]: 92.7%
cell viability [6, 37]: 96.4%
cell viability [6, 38]: 98.6%
cell viability [6, 39]: 101%
cell viability [6, 40]: 87.3%

O=C1CCc2cc(OCCCCc3nnnn3C3CCCCC3)ccc2N1
AUC of viability dose-response curve ([1]; HPLM + 10% dialyzed FBS): 452
AUC of viability dose-response curve ([1]; RPMI 5 mM glucose + 10% FBS): 436
AUC of viability dose-response curve [1, 7]: 431
AUC of viability dose-response curve ([2]; HPLM + 10% dialyzed FBS): 439
AUC of viability dose-response curve ([2]; RPMI 5 mM glucose + 10% FBS): 438
AUC of viability dose-response curve [2, 7]: 428
AUC of viability dose-response curve ([3]; HPLM + 10% dialyzed FBS): 411
AUC of viability dose-response curve ([3]; RPMI 5 mM glucose + 10% FBS): 433
AUC of viability dose-response curve [3, 7]: 451
cell viability [4, 8]: 90.5%
cell viability [4, 9]: 92.6%
cell viability [4, 10]: 87.5%
cell viability [4, 11]: 95.7%
cell viability [4, 12]: 96.4%
cell viability [4, 13]: 97.6%
cell viability [4, 14]: 94.2%
cell viability [4, 15]: 95.6%
cell viability [4, 16]: 96%
cell viability [4, 17]: 97.4%
cell viability [4, 18]: 96.9%
cell viability [4, 19]: 78.9%
cell viability [4, 20]: 93.8%
cell viability [4, 21]: 89.2%
cell viability [4, 22]: 81%
cell viability [4, 23]: 91.2%
cell viability [4, 24]: 94.2%
cell viability [4, 25]: 98.1%
cell viability [4, 26]: 95.8%
cell viability [4, 27]: 85.2%
cell viability [4, 28]: 98.5%
cell viability [4, 29]: 99.2%
cell viability [4, 30]: 90.2%
cell viability [4, 31]: 88.1%
cell viability [4, 32]: 90%
cell viability [4, 33]: 94.6%
cell viability [4, 34]: 88.4%
cell viability [4, 35]: 91.8%
cell viability [4, 36]: 95.9%
cell viability [4, 37]: 90.2%
cell viability [4, 38]: 89.6%
cell viability [4, 39]: 88.1%
cell viability [4, 40]: 87.1%
cell viability [5, 8]: 79.2%
cell viability [5, 9]: 83.1%
cell viability [5, 10]: 101%
cell viability [5, 11]: 92%
cell viability [5, 12]: 92.9%
cell viability [5, 13]: 83.8%
cell viability [5, 14]: 88.8%
cell viability [5, 15]: 96.2%
cell viability [5, 16]: 97.8%
cell viability [5, 17]: 104%
cell viability [5, 18]: 99.3%
cell viability [5, 19]: 88.8%
cell viability [5, 20]: 88.8%
cell viability [5, 21]: 92%
cell viability [5, 22]: 91.5%
cell viability [5, 23]: 88.7%
cell viability [5, 24]: 75.7%
cell viability [5, 25]: 107%
cell viability [5, 26]: 104%
cell viability [5, 27]: 89.2%
cell viability [5, 28]: 104%
cell viability [5, 29]: 81.3%
cell viability [5, 30]: 80.1%
cell viability [5, 31]: 90%
cell viability [5, 32]: 100%
cell viability [5, 33]: 86.2%
cell viability [5, 34]: 78.5%
cell viability [5, 35]: 87.6%
cell viability [5, 36]: 92.2%
cell viability [5, 37]: 92.7%
cell viability [5, 38]: 101%
cell viability [5, 39]: 90.6%
cell viability [5, 40]: 88.2%
cell viability [6, 8]: 92.2%
cell viability [6, 9]: 86.5%
cell viability [6, 10]: 92.8%
cell viability [6, 11]: 99.6%
cell viability [6, 12]: 97.6%
cell viability [6, 13]: 98.9%
cell viability [6, 14]: 107%
cell viability [6, 15]: 86%
cell viability [6, 16]: 108%
cell viability [6, 17]: 124%
cell viability [6, 18]: 111%
cell viability [6, 19]: 93%
cell viability [6, 20]: 94.7%
cell viability [6, 21]: 91.3%
cell viability [6, 22]: 82.8%
cell viability [6, 23]: 85.8%
cell viability [6, 24]: 98.4%
cell viability [6, 25]: 88.2%
cell viability [6, 26]: 88.7%
cell viability [6, 27]: 92.4%
cell viability [6, 28]: 91.2%
cell viability [6, 29]: 91.4%
cell viability [6, 30]: 88.6%
cell viability [6, 31]: 93%
cell viability [6, 32]: 88.8%
cell viability [6, 33]: 95.7%
cell viability [6, 34]: 88%
cell viability [6, 35]: 93.1%
cell viability [6, 36]: 96.9%
cell viability [6, 37]: 96.5%
cell viability [6, 38]: 109%
cell viability [6, 39]: 93.9%
cell viability [6, 40]: 96%
